According to patent publication US11202818B2, “Methods and compositions for modulating erythropoiesis” (President and Fellows of Harvard College, priority 2016, dated 2021):

Test system: Kit+CD55+Lin-CD71lo BM cells
Test: ETD activation in cultured pre-ETD BM cells with S phase arrest
Type: cell-based, mouse
Method: To test whether the synchronization of ETD activation with S phase reflects mechanistic dependence, BM cells were isolated prior to the onset of ETD (Kit+CD55+Lin−CD71lo, FIG. 5, Panels f-h). The cells were cultured in the presence of Epo, which allowed them to activate the ETD, reflected first by the upregulation of CD71, followed by the upregulation of the erythroid cell surface marker Ter119, and induction of the beta-globin gene (Hbb-b1). […] The ensuing ETD activation proceeded with a 10-hour delay in the induction of CD71 and Hbb-b1 (FIG. 5, Panels g and h).

[1] = added for the first 10 hours of culture with Epo

C[C@@]1(CO)[C@H](O)CC[C@@]2(C)[C@H]1CC[C@H]1C[C@@H]3C[C@@]12CC[C@]3(O)CO [aphidicolin]
effect on S phase [1]: arrested S phase
effect on upregulation of CD71 [1]: paused upregulation of CD71
delay in the induction of CD71 and Hbb-b1 (after removal, added for the first 10 hours): 10 h
